Values of other authors as cited in PMC10837402, “Unnatural amino acid substitutions to improve in vivo stability and tumor uptake of ^68Ga-labeled GRPR-targeted TacBOMB2 derivatives for cancer imaging with positron emission tomography” (EJNMMI Radiopharmacy and Chemistry, 2024).

What was measured:
GRPR [1] = biological target: T1, GRPR (Homo sapiens, UniProt P30550); details: vs Ac-Bombesin(7–14); ref Horwell et al. 1996; cited from earlier work
T1 construct: generated using GRPR-expressing PC-3 cells; endogenous in cells; host or cells: PC-3 cells

[2] = tested on: GRPR-expressing PC-3 tumor xenografts; details: mouse, in vivo, 1 h; cited from earlier work
GRPR [3] = biological target: T1, GRPR; design: method as in Wang et al. [2023]; details: previously reported; ref Wang et al. [2023]; read-out: GRPR binding affinity (Ki); cited from earlier work

T1 sequence (P30550 whole entry): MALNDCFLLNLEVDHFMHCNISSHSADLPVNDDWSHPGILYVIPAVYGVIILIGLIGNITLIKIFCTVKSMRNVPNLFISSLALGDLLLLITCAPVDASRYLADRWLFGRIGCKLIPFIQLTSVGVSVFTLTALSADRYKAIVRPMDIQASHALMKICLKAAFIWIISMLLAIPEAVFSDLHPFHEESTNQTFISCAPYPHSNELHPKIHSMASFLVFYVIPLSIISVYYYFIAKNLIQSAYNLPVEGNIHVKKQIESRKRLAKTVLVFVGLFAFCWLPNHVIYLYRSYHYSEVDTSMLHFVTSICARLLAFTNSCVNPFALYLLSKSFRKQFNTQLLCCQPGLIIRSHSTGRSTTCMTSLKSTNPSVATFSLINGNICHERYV

**Q.** Which “Reduction in GRPR binding affinity caused by NMe-Gly^11 substitution” value (GRPR [1]) does the source give for Ac-[NMe-Gly^11]Bombesin(7–14) here?
**A.** > 30 fold

**Q.** Which results are given for “^68Ga-DOTA-Pip-D-Phe^6-Gln^7-Trp^8-Ala^9-Val^10-Gly^11-His^12-Leu^13-Thz^14-NH2 [[^68Ga]Ga-TacBOMB2]”?
**A.** Uptake in PC-3 tumor [2]: 5.95 %ID/g; Uptake in adrenal glands [2]: 0.52 ± 0.11 %ID/g; Uptake in blood [2]: 0.39 ± 0.12 %ID/g; Uptake in bone [2]: 0.26 ± 0.11 %ID/g; Uptake in brain [2]: 0.03 ± 0.01 %ID/g; Uptake in fat [2]: 0.10 ± 0.03 %ID/g; Uptake in heart [2]: 0.14 ± 0.02 %ID/g; Uptake in kidneys [2]: 2.43 ± 0.16 %ID/g; Uptake in liver [2]: 0.29 ± 0.13 %ID/g; Uptake in lungs [2]: 0.39 ± 0.10 %ID/g; Uptake in muscle [2]: 0.13 ± 0.08 %ID/g; Uptake in pancreas [2]: 1.30 ± 0.14 %ID/g; Uptake in small intestine [2]: 0.60 ± 0.12 %ID/g; Uptake in spleen [2]: 0.27 ± 0.10 %ID/g; Uptake in stomach [2]: 0.54 ± 0.27 %ID/g; Uptake in testes [2]: 0.16 ± 0.05 %ID/g; Ki (GRPR [3]): 7.62 nM
